What was measured:
Type in all cases: cell-based
Design in all cases: dose or concentration left out as unconfirmed
Conditions in all cases: 96 hours
[1] = tested on: breast tumor cell line MCF-7; test: Trypan blue exclusion viability assay, MCF-7
Experimental: (§1) MCF-7 is estrogen-responsive, while BT-20 is an estrogen-unresponsive cell line. NIH/3T3 and HFL are normal murine and human fibroblasts, respectively. MCF-7, BT-20, DLD-1 and H157 were grown in Dulbecco's modified Eagle's medium (DMEM) containing 10% fetal bovine serum supplemented with penicillin and streptomycin. DU145 was cultured in RPMI with 10% fetal bovine serum containing penicillin and streptomycin. […] All cell cultures were maintained at 37° C. in a humidified atmosphere of 5% CO2. Cells were treated with test compound at 2.5 mM concentration and cell viability was determined after 96 hours by the Trypan blue exclusion method.

[2] = tested on: colorectal carcinoma cell line DLD-1; test: Trypan blue exclusion viability assay, DLD-1
Experimental: as §1

[3] = tested on: prostate tumor cell line DU-145; test: Trypan blue exclusion viability assay, DU145
Experimental: as §1

[4] = tested on: breast tumor cell line BT-20; test: Trypan blue exclusion viability assay, BT20
Experimental: as §1

[5] = tested on: non-small cell lung carcinoma cell line H157; test: Trypan blue exclusion viability assay, H157
Experimental: as §1

SMILES | Cell death, MCF-7 [1] | Cell death, DLD-1 [2] | Cell death, DU145 [3] | Cell death, BT20 [4] | Cell death, H157 [5]
O=S(=O)(/C=C/c1ccc(F)cc1)Cc1ccc(C(F)(F)F)cc1 [Example 1, (E)-4-Fluorostyryl-4-trifluoromethylbenzylsulfone] | +++ (40-50% = +++) | +++ (40-50% = +++) | +++ (40-50% = +++) | +++ (40-50% = +++) | ++ (10-15% = ++)
O=S(=O)(/C=C/c1ccc(Cl)cc1)Cc1ccc(C(F)(F)F)cc1 [Example 2, (E)-4-Chlorostyryl-4-trifluoromethylbenzylsulfone] | ++ (10-15% = ++) | ++ (10-15% = ++) | ++ (10-15% = ++) | ++ (10-15% = ++) | 
O=S(=O)(/C=C/c1ccc(F)cc1)Cc1ccc(Cl)cc1Cl [Example 4, (E)-4-Fluorostyryl-2,4-dichlorobenzylsulfone] | ++ (10-15% = ++) |  | ++ (10-15% = ++) | ++ (10-15% = ++) | + (5-10%: = +)
O=S(=O)(/C=C/c1ccc(F)cc1)Cc1ccc(Cl)c(Cl)c1 [Example 6, (E)-4-Fluorostyryl-3,4-dichlorobenzylsulfone] | ++++ (50-60% = ++++) |  | ++++ (50-60% = ++++) | ++++ (50-60% = ++++) | 
O=[N+]([O-])c1ccc(CS(=O)(=O)/C=C/c2ccc(F)cc2)cc1 [Example 9, (E)-4-Fluorostyryl-4-nitrobenzylsulfone] | ++ (10-15% = ++) | − (0% = −) | ++ (10-15% = ++) | ++ (10-15% = ++) | ++ (10-15% = ++)
O=S(=O)(/C=C/c1ccc(F)c(F)c1)Cc1ccc(Cl)cc1 [Example 13, (E)-3,4-Difluorostyryl-4-chlorobenzylsulfone] | − (0% = −) | − (0% = −) | − (0% = −) |  | − (0% = −)
O=S(=O)(/C=C/c1ccc(F)c(Cl)c1)Cc1ccc(Cl)cc1 [Example 14, (E)-3-Chloro-4-fluorostyryl-4-chlorobenzylsulfone] | − (0% = −) | − (0% = −) | − (0% = −) |  | − (0% = −)
O=S(=O)(/C=C/c1ccc(F)cc1Cl)Cc1ccc(Cl)cc1 [Example 15, (E)-2-Chloro-4-fluorostyryl-4-chlorobenzylsulfone] | +++++ (Above 80% = +++++) | +++++ (Above 80% = +++++) | +++++ (Above 80% = +++++) |  | +++++ (Above 80% = +++++)

— patent US6762207B1, “(E)-styryl sulfone anticancer agents” (priority 1999, dated 2004)
